Results taken from patent US20130289070A1, “Use of Levocabastine for Modulating Generation of Pro-Inflammatory Cytokines” (Bausch & Lomb Incorporated, priority 2007, published 2013).

System: EoL-1 (human eosinophilic leukaemia cell line) cells
Assay: TNF-α-induced cytokine release, non-differentiated EoL-1 cells (NO PMA) (Luminex)
Assay type: cell-based
Parameters: key to Fractalkine (NO PMA), p of decrement / IL-1α (NO PMA), p of decrement / IL-1β (NO PMA), p of decrement / IL-1ra (NO PMA), p of decrement / IL-5 (NO PMA), p of decrement / IL-7 (NO PMA), p of decrement / IL-8 (NO PMA), p of decrement / IP-10 (NO PMA), p of decrement / MCP-1 (NO PMA), p of decrement / MIP-1β (NO PMA), p of decrement / VEGF (NO PMA), p of decrement: ns = non significant
Experimental: EoL-1 (human eosinophilic leukaemia cell line) cells (Saito et al., 1985; Mayumi, 1992) were maintained in RPMI-1640 medium with L-glutamine supplemented with 10% (v/v) FBS at 37° C. in a humidified atmosphere with 5% CO2. Where indicated, 24 h before the experiment 25 ng/mL PMA ((phorbol 12-myristate 13-acetate, purchased from Sigma Aldrich) was added to the medium to induce eosinophil granulation and differentiation (Ohtsu et al., 1993; Zimmermann et al., 2000).
Half-million cells were aliquoted per point in a 24 well plate; each experiment was performed in triplicate and carried out in parallel with eosinophils differentiated and non differentiated with PMA (25 ng/mL, 24 h). Cells were suspended in low serum medium (RPMI-1640, 0.1% (v/v) FBS). TNF-α was used to induce cytokine secretion as previously described by Steube et al. (2000), and the net release was obtained by comparison to the basal (non-TNF-α treated). In the first experiment we evaluated the concentration and time relation between TNF-α stimulation and cytokine release. Therefore, 5, 10, and 25 ng/mL of TNF-α was administered to the cells at 0, ½, 1, 2, 3, 6, 12 and 24 h (data not shown). An aliquot of 150 μL of supernate was collected for cytokines' analysis. […] Differentiated and non-differentiated EoL-1 cells were exposed from 0.1 to 2.3 mM levocabastine ([…]Levocabastine 0.05% solution eye drops containing cyclodextrins, without benzalkonium chloride), and aliquots of the supernates were collected after 12 and 24 h. The content of cytokines at time zero was estimated by treating the cells with 400 nM calcimycin (A-23187), which is a cytolytic agent that frees all the mediators from the cytoplasmic compartment. In addition, for each experiment we tested the effect of the vehicle, which was added to the wells in a concentration equal to the maximum amount used for drug dilution.
Samples (supernates 12 and 24 h) in triplicate were analyzed using Luminex 200™ (Luminex, Austin, Tex.) and Beadview software v1.0 (Upstate Cell Signaling Solutions, Temecula, Calif.).
All data are presented as mean±SEM for the indicated number of experiments. Statistical significance was determined by Newman-Keuls test after ANOVA using GraphPad Prism (version 3.0; GraphPad Software Inc., San Diego, Calif., USA). P-values<0.05 were considered to be significant.

[1] = 24 h, FN + Levocabastine 2 mM vs FN
[2] = 24 h, Levocabastine 2 mM vs TNF-α

Question: What does the source list for `C[C@@H]1CN([C@H]2CC[C@](C#N)(c3ccc(F)cc3)CC2)CC[C@]1(C(=O)O)c1ccccc1` [Levocabastine, levocabastine]?
Answer: IL-5 (NO PMA), p of decrement (12 h, TNF-α vs Lev 0.5 mM): ns; IL-7 (NO PMA), p of decrement (12 h, TNF-α vs Lev 0.5 mM): ns; IL-8 (NO PMA), p of decrement (12 h, TNF-α vs Lev 0.5 mM): ns; IP-10 (NO PMA), p of decrement (12 h, TNF-α vs Lev 0.5 mM): ns; MCP-1 (NO PMA), p of decrement (12 h, TNF-α vs Lev 0.5 mM): ns; MIP-1β (NO PMA), p of decrement (12 h, TNF-α vs Lev 0.5 mM): ns; VEGF (NO PMA), p of decrement (12 h, TNF-α vs Lev 0.5 mM): ns; Fractalkine (NO PMA), p of decrement (12 h, TNF-α vs Lev 1.0 mM): ns; IL-1ra (NO PMA), p of decrement (12 h, TNF-α vs Lev 1.0 mM): ns; IL-1α (NO PMA), p of decrement (12 h, TNF-α vs Lev 1.0 mM): ns; IL-1β (NO PMA), p of decrement (12 h, TNF-α vs Lev 1.0 mM): ns; IL-5 (NO PMA), p of decrement (12 h, TNF-α vs Lev 1.0 mM): ns; IL-7 (NO PMA), p of decrement (12 h, TNF-α vs Lev 1.0 mM): ns; IL-8 (NO PMA), p of decrement (12 h, TNF-α vs Lev 1.0 mM): ns; IP-10 (NO PMA), p of decrement (12 h, TNF-α vs Lev 1.0 mM): ns; MCP-1 (NO PMA), p of decrement (12 h, TNF-α vs Lev 1.0 mM): ns; MIP-1β (NO PMA), p of decrement (12 h, TNF-α vs Lev 1.0 mM): ns; VEGF (NO PMA), p of decrement (12 h, TNF-α vs Lev 1.0 mM): ns; Fractalkine (NO PMA), p of decrement (12 h, TNF-α vs Lev 2.3 mM): ns; IL-1ra (NO PMA), p of decrement (12 h, TNF-α vs Lev 2.3 mM): ns; IL-1α (NO PMA), p of decrement (12 h, TNF-α vs Lev 2.3 mM): ns; IL-1β (NO PMA), p of decrement (12 h, TNF-α vs Lev 2.3 mM): ns; IL-5 (NO PMA), p of decrement (12 h, TNF-α vs Lev 2.3 mM): ns; IL-7 (NO PMA), p of decrement (12 h, TNF-α vs Lev 2.3 mM): ns; IL-8 (NO PMA), p of decrement (12 h, TNF-α vs Lev 2.3 mM): ns; IP-10 (NO PMA), p of decrement (12 h, TNF-α vs Lev 2.3 mM): ns; MCP-1 (NO PMA), p of decrement (12 h, TNF-α vs Lev 2.3 mM): ns; MIP-1β (NO PMA), p of decrement (12 h, TNF-α vs Lev 2.3 mM): ns; VEGF (NO PMA), p of decrement (12 h, TNF-α vs Lev 2.3 mM): ns; MIP-1α (NO PMA), change of secretion (12 h, TNF-α vs Lev 0.1-2.3 mM): concentration dependent increase of; MIP-1α (NO PMA), p of increase (12 h, TNF-α vs Lev 0.1-2.3 mM): cytokine secretion p < 0.01; RANTES (NO PMA), change of secretion (12 h, TNF-α vs Lev 0.1-2.3 mM): increase of cytokine secretion; RANTES (NO PMA), p of increase (12 h, TNF-α vs Lev 0.1-2.3 mM): < 0.001; Fractalkine (NO PMA), p of decrement [1]: ns; G-CSF (NO PMA), p of decrement [1]: ns; GM-CSF (NO PMA), p of decrement [1]: ns; IL-1ra (NO PMA), p of decrement [1]: P < 0.001; IL-1α (NO PMA), p of decrement [1]: ns; IL-1β (NO PMA), p of decrement [1]: ns; IL-5 (NO PMA), p of decrement [1]: ns; IL-6 (NO PMA), p of decrement [1]: P < 0.001; IL-7 (NO PMA), p of decrement [1]: ns; IL-8 (NO PMA), p of decrement [1]: P < 0.001; IL-10 (NO PMA), p of decrement [1]: ns; IL-12p40 (NO PMA), p of decrement [1]: P < 0.05; IP-10 (NO PMA), p of decrement [1]: ns; MCP-1 (NO PMA), p of decrement [1]: Increase; MIP-1α (NO PMA), p of decrement [1]: Increase; MIP-1β (NO PMA), p of decrement [1]: ns; RANTES (NO PMA), p of decrement [1]: Increase; TGF-α (NO PMA), p of decrement [1]: ns; VEGF (NO PMA), p of decrement [1]: P < 0.001; Fractalkine (NO PMA), p of decrement [2]: ns; G-CSF (NO PMA), p of decrement [2]: ns; GM-CSF (NO PMA), p of decrement [2]: ns; IL-1ra (NO PMA), p of decrement [2]: P < 0.001; IL-1α (NO PMA), p of decrement [2]: ns; IL-1β (NO PMA), p of decrement [2]: ns; IL-5 (NO PMA), p of decrement [2]: ns; IL-6 (NO PMA), p of decrement [2]: P < 0.001; IL-7 (NO PMA), p of decrement [2]: ns
